Holding throughout (experiment): inhibition of tumour cell growth, NCI panel, 48 h
The test system of assay [1] is A549 NSCLC.
Assay [2] deals with ACHN renal.
Assay [3] concerns HCT-116 colon.
The subject of assay [4] is HOP-62 NSCLC.
The subject of assay [5] is LOX IMVI melanoma.
Assay [6] has as its system MALME-3M melanoma.
For assay [7], the system named is NCI-H460 lung.
The subject of assay [8] is SK-MEL-2 melanoma.
Assay [9] relates to K-562 leukemia.
Assay [10] deals with M14 melanoma.

These results are taken from PubChem BioAssay (NCI).

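Results reflect a 48-hour exposure of cells in 96-well plates to compound at five concentrations. GI50 is the concentration that inhibits growth by half. Definition used: TGI = concentration required for complete inhibition of growth.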

For the molecule `Cc1cc2c(=O)cc(-c3ccncc3)oc2c(C(=O)O)c1C`, the TGI in assay [1], in assay [2], in assay [3], in assay [4], in assay [5] and in [6] was above 100 µM throughout. In addition, the TGI in assay [7] and in [8] was above 100 µM each time.

As to `O=C1C(=O)c2c(ccc3ccccc23)-c2ccccc21`, the GI50 in assay [1] is 2.83 µM; in assay [2], 2.74 µM; in assay [3], 0.384 µM; in assay [4] it was 1.9 µM; in [5] it was 1.38 µM; in assay [6], 1.63 µM. The GI50 in assay [7] was 1.6 µM; in assay [8], 1.73 µM. Moreover, the TGI is 8.3 µM in assay [1]; above 100 µM in assay [2]; 2.87 µM in [3]; 4.56 µM in [4]; 3.93 µM in assay [5]; 3.44 µM in assay [6]. The TGI in assay [7] is 3.08 µM; in [8] it was 3.78 µM.

`CC1=CC(=O)N2[C@H](OC[C@@H]2C(C)C)O1`: the TGI in assay [1], in assay [2], in assay [3], in [4], in assay [9] and in [10] was above 100 µM in each case. The TGI in assay [6], in assay [7] and in assay [8] was above 100 µM throughout.

On to `CCCCCCCCCCCCCCCC(=O)NCC(OCC)OCC`, for which the TGI in assay [1], in assay [2], in assay [3], in assay [4], in assay [5] and in [10] was above 100 µM throughout. Besides, the TGI in assay [6], in assay [7] and in assay [8] was above 100 µM each time.

On to `Cn1nc(-c2ccccc2)c(C(=O)/C=C/c2ccccc2)c(N2CCCC2)c1=O`, for which the TGI in assay [1] is above 100 µM; in assay [2], 41.5 µM; in assay [3], 19.2 µM; in assay [4], 24.2 µM; in assay [9] it was 40.9 µM; in assay [5] it was 88.2 µM. The TGI in [10] worked out at 35.3 µM; in [7], 32.4 µM.

`CCNC(=O)O/N=C1/C=C2CC[C@@H]3C(CC[C@@]4(C)C3CC[C@@H]4OC(=O)NCC)[C@@]2(C)CC1` (some centres not stated): the TGI is 14.2 µM in assay [1]; 11.6 µM in assay [2]; 12.2 µM in assay [3]; above 100 µM in [4]; 12.7 µM in assay [9]; 11.9 µM in [5]. For the same molecule, the TGI in [10] was found to be 8.22 µM; in assay [7], 12.5 µM; in [8], 5.1 µM.

As to `CC1CC2C(=O)N(c3ccccc3)C(=O)C2c2[nH]c3ccccc3c21` (configuration not stated), the TGI in [1], in assay [2], in assay [9], in assay [5], in [10] and in assay [6] was above 100 µM each time. Also, the TGI in assay [7] is above 100 µM.

Regarding `Cc1nc(-c2cccnc2)sc1C(=O)/C=C/c1ccc(Cl)cc1Cl`, the TGI in [1], in assay [2], in [4], in [9], in [5] and in assay [6] was above 100 µM throughout. The TGI in [7] and in assay [8] was above 100 µM in each case.

For `CCCCc1c2c(nc3c1CC/C(=C\c1ccccc1)C3=O)CCCC2`, the TGI stood at 28 µM in assay [1]; 25.9 µM in assay [2]; 16.1 µM in assay [3]; 16.5 µM in assay [4]; 32.3 µM in assay [9]; 3.48 µM in assay [5]. In addition, the results for the TGI in assay [10], in assay [6] and in [7] were 18.9 µM, 20.2 µM and 17.7 µM, respectively.

Consider `CC(C)C12CCC3(CCC4C(C)(C(=O)O)CCCC4(C)C3C1)C(CN)C2` (configuration not stated), for which the TGI in assay [1] is above 100 µM; in [2], above 100 µM; in assay [3], 34.2 µM; in assay [4], above 100 µM; in [5] it was 34.7 µM; in assay [10] it was above 100 µM. Moreover, the TGI was above 100 µM in assay [6], 52.3 µM in assay [7] and above 100 µM in assay [8].

As for `Clc1ccc(N=CNc2ccc(-c3nc4ccccc4[nH]3)cc2)cc1`, the GI50 is above 100 µM in assay [1]; above 100 µM in assay [2]; above 100 µM in assay [3]; above 100 µM in assay [4]; 1.56 µM in assay [9]; 1.37 µM in assay [5]. In addition, the GI50 is above 100 µM in assay [10], 17.7 µM in assay [7] and 76.6 µM in [8]. For the same molecule, the TGI is above 100 µM in assay [1]; above 100 µM in assay [2]; above 100 µM in assay [3]; above 100 µM in assay [4]; 17.2 µM in assay [9]; 24.8 µM in assay [5]. In addition, the TGI in [10], in [7] and in assay [8] was above 100 µM in each case.

Take `O=[N+]([O-])c1cccc(C2=NOC3CCCC23)c1` (configuration not stated): the TGI in [1], in [2], in assay [3], in [4], in assay [9] and in assay [10] was above 100 µM each time. Also, the TGI in assay [6], in [7] and in [8] was above 100 µM throughout.

For the molecule `COC(=O)CCSC(=O)Nc1ccccc1Cl`, the TGI in assay [1], in assay [2], in [3], in assay [4], in [9] and in assay [5] was above 100 µM throughout. Moreover, the TGI in [10], in [7] and in assay [8] was above 100 µM throughout.

Consider `CC(C)c1nc(Cl)c(Cl)c(Cl)n1`, for which the TGI in assay [1] is above 41.3 µM; in [2], 2.51 µM; in [3] it was 14.2 µM; in [4], 25.9 µM; in assay [9], above 100 µM; in assay [5] it was 1.71 µM. For the same molecule, the TGI came to 19 µM in [10], 19 µM in assay [6] and 48.4 µM in assay [7].
